Experimental findings from patent US8044079B2, “Substituted oxindole derivatives, medicaments containing said derivatives and use thereof” (Abbott GmbH & Co. KG, priority 2005, dated 2011) are described below.

The term Ki denotes a measure of affinity in units of concentration, obtained from inhibition or displacement.

The assay has as its target T1, human vasopressin V1b receptor (Homo sapiens, UniProt P47901).
T1 construct: expressed in transfected cells; host or cells: CHO-K1 (cell line hV1b_3H2_CHO), membrane preparation
T1 sequence (P47901 1-424): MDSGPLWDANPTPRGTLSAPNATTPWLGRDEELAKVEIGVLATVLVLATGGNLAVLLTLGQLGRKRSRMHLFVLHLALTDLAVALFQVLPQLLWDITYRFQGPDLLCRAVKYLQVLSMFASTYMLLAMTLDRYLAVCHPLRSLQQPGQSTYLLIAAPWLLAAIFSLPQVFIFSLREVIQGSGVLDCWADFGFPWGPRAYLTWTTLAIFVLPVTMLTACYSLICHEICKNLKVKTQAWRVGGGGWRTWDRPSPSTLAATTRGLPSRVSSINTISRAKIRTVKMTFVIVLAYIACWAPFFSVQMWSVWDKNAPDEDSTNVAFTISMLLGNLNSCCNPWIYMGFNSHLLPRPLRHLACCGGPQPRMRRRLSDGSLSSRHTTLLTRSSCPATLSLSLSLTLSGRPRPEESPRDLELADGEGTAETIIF
Briefly: Vasopressin V1b receptor binding test. As to conditions: membranes of CHO-K1 cells with human V1b receptor, displacement of 1.5 nM 3H-AVP; for compounds with more than one stereogenic center the diastereomer with greater affinity. The gist of the method:
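Radioligand displacement on membranes carrying human V1b receptor in 50 mM tris, 10 mM MgCl2, 0.1% BSA, pH 7.4, 2% DMSO final; 60 min at room temperature, nonspecific binding with 1 μM AVP. Free ligand removed by filtration, bound counted by liquid scintillation, Ki from nonlinear regression of triplicates.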

As for `COc1ccc(S(=O)(=O)N2C(=O)C(N[C@@H](C)c3ncco3)(c3cc(CN(C)C)ccc3OC)c3cc(Cl)ccc32)cc1` (stereo partly drawn) [Example 133, 5-Chloro-3-(5-dimethylaminomethyl-2-methoxyphenyl)-1-(4-methoxybenzenesulfonyl)-3-((S)-1-oxazol-2-yl-ethylamino)-1,3-dihydroindol-2-one], the Ki was 0.01 to 0.1 µM. To `CCOc1ccc(CN(C)C)cc1C1(N2CCC[C@H]2c2ncco2)C(=O)N(S(=O)(=O)c2ccc(OC)cc2)c2ccc(Cl)cc21` (stereo partly drawn) [Example 204, 5-Chloro-3-(5-dimethylaminomethyl-2-ethoxyphenyl)-1-(4-methoxybenzenesulfonyl)-3-((S)-2-oxazol-2-yl-pyrrolidin-1-yl)-1,3-dihydroindol-2-one] belongs 0.01 to 0.1 µM. For the molecule `CCCNCc1ccc(OC)c(C2(N3CCC[C@H]3c3ncco3)C(=O)N(S(=O)(=O)c3ccc(OC)cc3)c3ccc(Cl)cc32)c1` (stereo partly drawn) [Example 116, 5-Chloro-1-(4-methoxybenzenesulfonyl)-3-(2-methoxy-5-(propylaminomethyl)phenyl)-3-((S)-2-oxazol-2-yl-pyrrolidin-1-yl)-1,3-dihydroindol-2-one], the Ki is less than 0.01 µM. Take `COc1ccc(S(=O)(=O)N2C(=O)C(c3ccc(CN4CCCC4)cc3OC)(N3CCC[C@H]3c3ncco3)c3cc(Cl)ccc32)cc1` (stereo partly drawn) [Example 25, 5-Chloro-1-(4-methoxybenzenesulfonyl)-3-(2-methoxy-4-pyrrolidin-1-ylmethylphenyl)-3-((S)-2-oxazol-2-yl-pyrrolidin-1-yl)-1,3-dihydroindol-2-one]: the inhibitory constant (Ki) was less than 0.01 µM. Molecule `CNCc1ccc(OC)c(C2(N3CCC[C@H]3c3ncco3)C(=O)N(S(=O)(=O)c3ccc(OC)cc3)c3ccc(Cl)cc32)c1` (stereo partly drawn) [Example 3, 5-Chloro-1-(4-methoxybenzenesulfonyl)-3-(2-methoxy-5-methylaminomethylphenyl)-3-((S)-2-oxazol-2-yl-pyrrolidin-1-yl)-1,3-dihydroindol-2-one] yielded a Ki of less than 0.01 µM. As for `COc1ccc(S(=O)(=O)N2C(=O)C(c3ccc(CN4CCN(CCO)CC4)cc3OC)(N3CCC[C@H]3c3ncco3)c3cc(Cl)c(F)cc32)cc1` (stereo partly drawn) [Example 212, 5-Chloro-6-fluoro-3-{4-[4-(2-hydroxyethyl)piperazin-1-ylmethyl]-2-methoxyphenyl}-1-(4-methoxybenzenesulfonyl)-3-((S)-2-oxazol-2-yl-pyrrolidin-1-yl)-1,3-dihydroindol-2-one], the inhibitory constant (Ki) is less than 0.01 µM. To `COc1ccc(S(=O)(=O)N2C(=O)C(c3cc(CN(C)C)ccc3OC)(N3C[C@H](O)C[C@H]3c3ncco3)c3cc(Cl)ccc32)cc1` (stereo partly drawn) [Example 102, 5-Chloro-3-(5-dimethylaminomethyl-2-methoxyphenyl)-3-((2S,4R)-4-hydroxy-2-oxazol-2-yl-pyrrolidin-1-yl)-1-(4-methoxybenzenesulfonyl)-1,3-dihydroindol-2-one] belongs less than 0.01 µM; to `COc1ccc(S(=O)(=O)N2C(=O)C(c3ccc(CNC(C)C)cc3OC)(N3CCC[C@H]3c3ncco3)c3cc(C#N)ccc32)cc1` (stereo partly drawn) [Example 100, 5-Cyano-3-[4-(isopropylaminomethyl)-2-methoxyphenyl]-1-(4-methoxybenzenesulfonyl)-3-((S)-2-oxazol-2-yl-pyrrolidin-1-yl)-1,3-dihydroindol-2-one], 0.01 to 0.1 µM. `CNCc1ccc(OC)c(C2(N3CCCC3c3ccccn3)C(=O)N(S(=O)(=O)c3ccc(OC)cc3)c3ccc(Cl)cc32)c1` (stereo not shown) [Example 120, 5-Chloro-1-(4-methoxybenzenesulfonyl)-3-(2-methoxy-5-methylaminomethylphenyl)-3-(2-pyridin-2-yl-pyrrolidin-1-yl)-1,3-dihydroindol-2-one]: the Ki is 0.1 to 1 µM.

“5-Chloro-1-(4-cyanobenzenesulfonyl)-3-{4-[(2-hydroxyethylamino)methyl]-2-methoxyphenyl}-3-((2S,4R)-4-hydroxy-2-oxazol-2-yl-pyrrolidin-1-yl)-2,3-dihydroindol-2-one [Example 196]” registered an inhibition constant Ki of 0.01 to 0.1 µM. Take `CNCc1ccc(C2(N3C[C@H](O)C[C@H]3c3ncco3)C(=O)N(S(=O)(=O)c3ccc(C#N)cc3)c3ccc(Cl)cc32)c(OC)c1` (stereo partly drawn) [Example 190, 5-Chloro-3-((2S,4R)-4-hydroxy-2-oxazol-2-yl-pyrrolidin-1-yl)-3-(2-methoxy-4-methylaminomethylphenyl)-1-(4-cyanobenzenesulfonyl)-1,3-dihydroindol-2 one]: the inhibitory constant (Ki) lay in the range of 0.01 to 0.1 µM. Regarding `COc1ccc(S(=O)(=O)N2C(=O)C(c3cc(CN4CCN(C)CC4)ccc3OC)(N3C[C@H](F)C[C@H]3c3ncco3)c3cc(C#N)ccc32)cc1` (stereo partly drawn) [Example 228, 5-Cyano-3-((2S,4R)-4-fluoro-2-oxazol-2-yl-pyrrolidin-1-yl)-1-(4-methoxybenzenesulfonyl)-3-[2-methoxy-5-(4-methylpiperazin-1-ylmethyl)phenyl]-1,3-dihydroindol-2-one], the inhibition constant Ki was 0.01 to 0.1 µM. `COc1ccc(S(=O)(=O)N2C(=O)C(c3ccc(CN4CCNC(=O)C4)cc3OC)(N3CCC[C@H]3c3ncco3)c3cc(Cl)ccc32)cc1` (stereo partly drawn) [Example 138, 5-Chloro-1-(4-methoxybenzenesulfonyl)-3-[2-methoxy-4-(3-oxopiperazin-1-ylmethyl)phenyl]-3-((S)-2-oxazol-2-yl-pyrrolidin-1-yl)-1,3-dihydroindol-2-one] gave a Ki of 0.01 to 0.1 µM.

`COc1ccc(S(=O)(=O)N2C(=O)C(c3ccc(CN4CCCCC4)cc3OC)(N3C[C@H](O)C[C@H]3c3ncco3)c3cc(Cl)ccc32)cc1` (stereo partly drawn) [Example 169, 5-Chloro-3-((2S,4R)-4-hydroxy-2-oxazol-2-yl-pyrrolidin-1-yl)-1-(4-methoxybenzenesulfonyl)-3-(2-methoxy-4-piperidin-1-ylmethylphenyl)-1,3-dihydroindol-2-one] showed an inhibitory constant (Ki) of less than 0.01 µM. `CCNCc1ccc(OCC)c(C2(N3CCC[C@H]3c3ncco3)C(=O)N(S(=O)(=O)c3ccc(OC)cc3)c3ccc(Cl)cc32)c1` (stereo partly drawn) [Example 206, 5-Chloro-3-(2-ethoxy-5-ethylaminomethylphenyl)-1-(4-methoxybenzenesulfonyl)-3-((S)-2-oxazol-2-yl-pyrrolidin-1-yl)-1,3-dihydroindol-2-one]: the Ki fell in the range of 0.01 to 0.1 µM.

In turn, `COc1ccc(S(=O)(=O)N2C(=O)C(c3cc(CNC(C)C)cc4c3OCO4)(N3CCC[C@H]3c3ncco3)c3cc(Cl)ccc32)cc1` (stereo partly drawn) [Example 187, 5-Chloro-3-[6-(isopropylaminomethyl)benzo[1,3]dioxol-4-yl]-1-(4-methoxybenzenesulfonyl)-3-((S)-2-oxazol-2-yl-pyrrolidin-1-yl)-1,3-dihydroindol-2-one] displayed an inhibition constant Ki of less than 0.01 µM. For `COc1ccc(S(=O)(=O)N2C(=O)C(c3ccc(CN4CCNCC4)cc3OC)(N3CCC[C@H]3c3ncco3)c3cc(C#N)ccc32)cc1` (stereo partly drawn) [Example 153, 5-Cyano-1-(4-methoxybenzenesulfonyl)-3-(2-methoxy-4-piperazin-1-ylmethylphenyl)-3-((S)-2-oxazol-2-yl-pyrrolidin-1-yl)-1,3-dihydroindol-2-one], the inhibition constant (Ki) is less than 0.01 µM.

As for `CCNCc1ccc(OC)c(C2(N3CCC[C@H]3c3ncco3)C(=O)N(S(=O)(=O)c3ccc(OC)cc3)c3ccc(C#N)cc32)c1` (stereo partly drawn) [Example 47, 5-Cyano-3-(5-ethylaminomethyl-2-methoxyphenyl)-1-(4-methoxybenzenesulfonyl)-3-((S)-2-oxazol-2-yl-pyrrolidin-1-yl)-1,3-dihydroindol-2-one], the Ki is less than 0.01 µM. Molecule `CCN(C)Cc1ccc(C2(N3CCC[C@H]3c3ncco3)C(=O)N(S(=O)(=O)c3ccc(OC)cc3)c3ccc(Cl)cc32)c(OC)c1` (stereo partly drawn) [Example 18, 5-Chloro-3-{4-[(ethylmethylamino)methyl]-2-methoxyphenyl}-1-(4-methoxybenzenesulfonyl)-3-((S)-2-oxazol-2-yl-pyrrolidin-1-yl)-1,3-dihydroindol-2-one] came in with a Ki of less than 0.01 µM. The result for `COc1ccc(S(=O)(=O)N2C(=O)C(c3cccc(CN4CCN(C)CC4)c3OC)(N3CCC[C@H]3c3ncco3)c3cc(Cl)ccc32)cc1` (stereo partly drawn) [Example 192, 5-Chloro-1-(4-methoxybenzenesulfonyl)-3-[2-methoxy-3-(4-methylpiperazin-1-ylmethyl)phenyl]-3-((S)-2-oxazol-2-yl-pyrrolidin-1-yl)-1,3-dihydroindol-2-one] reads less than 0.01 µM; that for `CCN(CC)Cc1ccc(OC)c(C2(N3CCC[C@H]3c3ncco3)C(=O)N(S(=O)(=O)c3ccc(OC)cc3)c3cc(Cl)ccc32)c1` (stereo partly drawn) [Example 31, 6-Chloro-3-(5-diethylaminomethyl-2-methoxyphenyl)-1-(4-methoxybenzenesulfonyl)-3-((S)-2-oxazol-2-yl-pyrrolidin-1-yl)-1,3-dihydroindol-2-one], 0.1 to 1 µM. Take `COc1ccc(S(=O)(=O)N2C(=O)C(c3cc(CN4CCN(CCO)CC4)ccc3OC)(N3CCC[C@H]3c3ncco3)c3cc(C#N)ccc32)cc1` (stereo partly drawn) [Example 142, 5-Cyano-3-{5-[4-(2-hydroxyethyl)piperazin-1-ylmethyl]-2-methoxyphenyl}-1-(4-methoxybenzenesulfonyl)-3-((S)-2-oxazol-2-yl-pyrrolidin-1-yl)-1,3-dihydroindol-2-one]: the Ki was less than 0.01 µM.
